# From patent publication US20070049593A1 (priority 2004, published 2007)
# Structures can show the parent of a compound that is named as a salt.
# Molecular target: T1, HCV polymerase (Hepatitis C virus genotype 1b, UniProt P26663)
# T1 construct: a region encoding NS5B (J Virol 1991 March, 65(3), 1105-13, 544 amino acids after deletion of 47 amino acids on the C-terminal); 6xHis (C); made in house; host or cells: Escherichia coli
# Assay: biochemical
# Design: species or system HCV BK strain
# Summary of the method: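 His-tagged NS5B (BK strain, 47-aa C-terminal deletion, E. coli-expressed) at 0.5 μg/ml copied 5 μg/ml run-off RNA bearing the HCV 3′ UTR with 2 μM UTP plus [3H]UTP, 50 μM ATP/GTP, in pH 7.5 Tris with 5 mM MgCl2, 25 °C, 90 min. TCA-precipitated RNA was counted and IC50 calculated.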
# T1 sequence (P26663 2420-2963): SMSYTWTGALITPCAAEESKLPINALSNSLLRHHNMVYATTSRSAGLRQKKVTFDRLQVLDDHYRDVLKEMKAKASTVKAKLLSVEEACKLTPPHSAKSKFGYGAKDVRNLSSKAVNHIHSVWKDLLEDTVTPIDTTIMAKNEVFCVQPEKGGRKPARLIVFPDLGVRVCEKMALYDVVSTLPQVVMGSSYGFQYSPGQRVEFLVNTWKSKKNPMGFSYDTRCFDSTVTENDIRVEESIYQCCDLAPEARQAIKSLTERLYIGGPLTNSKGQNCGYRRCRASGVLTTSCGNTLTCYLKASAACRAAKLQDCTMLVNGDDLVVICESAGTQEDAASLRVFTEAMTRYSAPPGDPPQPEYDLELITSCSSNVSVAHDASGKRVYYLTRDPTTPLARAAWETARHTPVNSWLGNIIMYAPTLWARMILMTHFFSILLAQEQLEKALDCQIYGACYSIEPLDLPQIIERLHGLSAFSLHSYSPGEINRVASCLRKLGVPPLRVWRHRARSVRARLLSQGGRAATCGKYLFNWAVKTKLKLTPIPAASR
row,SMILES,IC50
1,"CCC1COCCN1CCN1CCn2c(c(C3CCCCC3)c3ccc(C(=O)O)cc32)-c2ccc(Cl)cc21 (centres unmarked) [Example 1-327, 3-chloro-13-cyclohexyl-5-[2-(3-ethylmorpholin-4-yl)ethyl]-6,7-dihydro-5H-benzo[5,6][1,4]diazepino[7,1-a]indole-10-carboxylic acid dihydrochloride]",< 100 nM
2,"CC1CN(CCN2CCn3c(c(C4CCCCC4)c4ccc(C(=O)O)cc43)-c3ccc(Cl)cc32)CCO1 (centres unmarked) [Example 1-328, 3-chloro-13-cyclohexyl-5-[2-(2-methylmorpholin-4-yl)ethyl]-6,7-dihydro-5H-benzo[5,6][1,4]diazepino[7,1-a]indole-10-carboxylic acid dihydrochloride]",< 100 nM
3,"Cc1ccc2c(c1)N(CCN1CCOC(C)C1)CCn1c-2c(C2CCCCC2)c2ccc(C(=O)O)cc21 (centres unmarked) [Example 1-329, 13-cyclohexyl-3-methyl-5-[2-(2-methylmorpholin-4-yl)ethyl]-6,7-dihydro-5H-benzo[5,6][1,4]diazepino[7,1-a]indole-10-carboxylic acid dihydrochloride]",< 100 nM
4,"CNC(=O)N1CCN(CCN2CCn3c(c(C4CCCCC4)c4ccc(C(=O)O)cc43)-c3ccccc32)CC1 [Example 1-330, 13-cyclohexyl-5-[2-(4-methylcarbamoylpiperazin-1-yl)ethyl]-6,7-dihydro-5H-benzo[5,6][1,4]diazepino[7,1-a]indole-10-carboxylic acid dihydrochloride]",< 100 nM
5,"CCCC1CCCN(CCN2CCn3c(c(C4CCCCC4)c4ccc(C(=O)O)cc43)-c3ccccc32)C1 (centres unmarked) [Example 1-331, 13-cyclohexyl-5-[2-(3-propylpiperidin-1-yl)ethyl]-6,7-dihydro-5H-benzo[5,6][1,4]diazepino[7,1-a]indole-10-carboxylic acid dihydrochloride]",< 100 nM
6,"CCC1CCCCN1CCN1CCn2c(c(C3CCCCC3)c3ccc(C(=O)O)cc32)-c2ccccc21 (centres unmarked) [Example 1-332, 13-cyclohexyl-5-[2-(2-ethylpiperidin-1-yl)ethyl]-6,7-dihydro-5H-benzo[5,6][1,4]diazepino[7,1-a]indole-10-carboxylic acid dihydrochloride]",< 100 nM
7,"CCC1CCCCN1CCN1CCn2c(c(C3CCCCC3)c3ccc(C(=O)O)cc32)-c2ccc(C)cc21 (centres unmarked) [Example 1-333, 13-cyclohexyl-5-[2-(2-ethylpiperidin-1-yl)ethyl]-3-methyl-6,7-dihydro-5H-benzo[5,6][1,4]diazepino[7,1-a]indole-10-carboxylic acid dihydrochloride]",< 100 nM
8,"CCC1CCCCN1CCN1CCn2c(c(C3CCCCC3)c3ccc(C(=O)O)cc32)-c2ccc(Cl)cc21 (centres unmarked) [Example 1-334, 3-chloro-13-cyclohexyl-5-[2-(2-ethylpiperidin-1-yl)ethyl]-6,7-dihydro-5H-benzo[5,6][1,4]diazepino[7,1-a]indole-10-carboxylic acid dihydrochloride]",< 100 nM
9,"CC[C@H]1CCCN(CCN2CCn3c(c(C4CCCCC4)c4ccc(C(=O)O)cc43)-c3ccc(Cl)cc32)C1 [Example 1-335, 3-chloro-13-cyclohexyl-5-[2-((S)-3-ethylpiperidin-1-yl)ethyl]-6,7-dihydro-5H-benzo[5,6][1,4]diazepino[7,1-a]indole-10-carboxylic acid dihydrochloride]",< 100 nM
10,"CC[C@@H]1CCCN(CCN2CCn3c(c(C4CCCCC4)c4ccc(C(=O)O)cc43)-c3ccc(Cl)cc32)C1 [Example 1-336, 3-chloro-13-cyclohexyl-5-[2-((R)-3-ethylpiperidin-1-yl)ethyl]-6,7-dihydro-5H-benzo[5,6][1,4]diazepino[7,1-a]indole-10-carboxylic acid dihydrochloride]",< 100 nM
11,"CC(C)c1ccc2c(c1)N(CCN1CCCCCC1)CCn1c-2c(C2CCCCC2)c2ccc(C(=O)O)cc21 [Example 1-337, 5-[2-(azepan-1-yl)ethyl]-13-cyclohexyl-3-isopropyl-6,7-dihydro-5H-benzo[5,6][1,4]diazepino[7,1-a]indole-10-carboxylic acid dihydrochloride]",< 100 nM
12,"CCc1ccc2c(c1)N(CCN1CCCCCC1)CCn1c-2c(C2CCCCC2)c2ccc(C(=O)O)cc21 [Example 1-338, 5-[2-(azepan-1-yl)ethyl]-13-cyclohexyl-3-ethyl-6,7-dihydro-5H-benzo[5,6][1,4]diazepino[7,1-a]indole-10-carboxylic acid dihydrochloride]",< 100 nM
13,"CCc1ccc2c(c1)N(CCN1CCCC(C)C1)CCn1c-2c(C2CCCCC2)c2ccc(C(=O)O)cc21 (centres unmarked) [Example 1-339, 13-cyclohexyl-3-ethyl-5-[2-(3-methylpiperidin-1-yl)ethyl]-6,7-dihydro-5H-benzo[5,6][1,4]diazepino[7,1-a]indole-10-carboxylic acid dihydrochloride]",< 100 nM
14,"CC1CCCN(CCN2CCn3c(c(C4CCCCC4)c4ccc(C(=O)O)cc43)-c3ccc(C(C)C)cc32)C1 (centres unmarked) [Example 1-340, 13-cyclohexyl-3-isopropyl-5-[2-(3-methylpiperidin-1-yl)ethyl]-6,7-dihydro-5H-benzo[5,6][1,4]diazepino[7,1-a]indole-10-carboxylic acid dihydrochloride]",< 100 nM
15,"CCC1CCCN(CCN2CCn3c(c(C4CCCCC4)c4ccc(C(=O)O)cc43)-c3ccc(C(C)C)cc32)C1 (centres unmarked) [Example 1-341, 13-cyclohexyl-5-[2-(3-ethylpiperidin-1-yl)ethyl]-3-isopropyl-6,7-dihydro-5H-benzo[5,6][1,4]diazepino[7,1-a]indole-10-carboxylic acid dihydrochloride]",< 100 nM
16,"O=C(O)c1ccc2c(C3CCCCC3)c3n(c2c1)CCN(CCC1CCCN(C2CC2)C1)c1cc(Cl)ccc1-3 (centres unmarked) [Example 1-342, 3-chloro-13-cyclohexyl-5-[2-(1-cyclopropylpiperidin-3-yl)ethyl]-6,7-dihydro-5H-benzo[5,6][1,4]diazepino[7,1-a]indole-10-carboxylic acid dihydrochloride]",< 100 nM
17,"CCCc1ccc2c(c1)N(CCN1CCCCC1)CCn1c-2c(C2CCCCC2)c2ccc(C(=O)O)cc21 [Example 1-343, 13-cyclohexyl-5-[2-(piperidin-1-yl)ethyl]-3-propyl-6,7-dihydro-5H-benzo[5,6][1,4]diazepino[7,1-a]indole-10-carboxylic acid dihydrochloride]",< 100 nM
18,"Cc1cc(COc2ccc3c(c2)N(CC[N+](C)(C)Cc2cc(C)on2)CCn2c-3c(C3CCCCC3)c3ccc(C(=O)O)cc32)no1 [Example 1-344, N-{2-[10-carboxy-13-cyclohexyl-3-(5-methylisoxazol-3-ylmethoxy)-6,7-dihydro-benzo[5,6][1,4]diazepino[7,1-a]indol-5-yl]ethyl}-N,N-dimethyl-N-(5-methylisoxazol-3-ylmethyl)ammonium chloride monohydrochloride]",< 100 nM
19,"CCOc1ccc2c(c1)N(CCN1CCCC(C)C1)CCn1c-2c(C2CCCCC2)c2ccc(C(=O)O)cc21 (centres unmarked) [Example 1-345, 13-cyclohexyl-3-ethoxy-5-[2-(3-methylpiperidin-1-yl)ethyl]-6,7-dihydro-5H-benzo[5,6][1,4]diazepino[7,1-a]indole-10-carboxylic acid dihydrochloride]",< 100 nM
20,"CCCc1ccc2c(c1)N(CCN1CCCC(COC)C1)CCn1c-2c(C2CCCCC2)c2ccc(C(=O)O)cc21 (centres unmarked) [Example 1-346, 13-cyclohexyl-5-[2-(3-methoxymethylpiperidin-1-yl)ethyl]-3-propyl-6,7-dihydro-5H-benzo[5,6][1,4]diazepino[7,1-a]indole-10-carboxylic acid dihydrochloride]",< 100 nM
21,"CCOc1ccc2c(c1)N(CCN1CCCC(CC)C1)CCn1c-2c(C2CCCCC2)c2ccc(C(=O)O)cc21 (centres unmarked) [Example 1-347, 13-cyclohexyl-3-ethoxy-5-[2-(3-ethylpiperidin-1-yl)ethyl]-6,7-dihydro-5H-benzo[5,6][1,4]diazepino[7,1-a]indole-10-carboxylic acid dihydrochloride]",< 100 nM
22,"CCC1CCCN(CCN2CCn3c(c(C4CCCCC4)c4ccc(C(=O)O)cc43)-c3ccc(OCc4ccccc4)cc32)C1 (centres unmarked) [Example 1-348, 3-benzyloxy-13-cyclohexyl-5-[2-(3-ethylpiperidin-1-yl)ethyl]-6,7-dihydro-5H-benzo[5,6][1,4]diazepino[7,1-a]indole-10-carboxylic acid dihydrochloride]",< 100 nM
23,"CCOc1ccc2c(c1)N(CCC1CCCN(C(C)C)C1)CCn1c-2c(C2CCCCC2)c2ccc(C(=O)O)cc21 (centres unmarked) [Example 1-349, 13-cyclohexyl-3-ethoxy-5-[2-(1-isopropylpiperidin-3-yl)ethyl]-6,7-dihydro-5H-benzo[5,6][1,4]diazepino[7,1-a]indole-10-carboxylic acid dihydrochloride]",< 100 nM
24,"CCc1ccc2c(c1)N(CCN1CCCC(CC)C1)CCn1c-2c(C2CCCCC2)c2ccc(C(=O)O)cc21 (centres unmarked) [Example 1-350, 13-cyclohexyl-3-ethyl-5-[2-(3-ethylpiperidin-1-yl)ethyl]-6,7-dihydro-5H-benzo[5,6][1,4]diazepino[7,1-a]indole-10-carboxylic acid dihydrochloride]",< 100 nM
25,"CC(C)C1CCCN(CCN2CCn3c(c(C4CCCCC4)c4ccc(C(=O)O)cc43)-c3ccc(Cl)cc32)C1 (centres unmarked) [Example 1-351, 3-chloro-13-cyclohexyl-5-[2-(3-isopropylpiperidin-1-yl)ethyl]-6,7-dihydro-5H-benzo[5,6][1,4]diazepino[7,1-a]indole-10-carboxylic acid dihydrochloride]",< 100 nM
26,"COCC1CCCN(CCCN2CCn3c(c(C4CCCCC4)c4ccc(C(=O)O)cc43)-c3ccc(Cl)cc32)C1 (centres unmarked) [Example 1-352, 3-chloro-13-cyclohexyl-5-[3-(3-methoxymethylpiperidin-1-yl)propyl]-6,7-dihydro-5H-benzo[5,6][1,4]diazepino[7,1-a]indole-10-carboxylic acid monohydrochloride]",< 100 nM
